Paper PMC11982498 (Redox Biology, 2025)

Columns and labels:
[1] = tested on: bio-BCL-2 (BCL-2 IM) (DNA, i motif) CAGCCCCGCTCCCGCCCCCTTCCTCCCGCGCCCGCCCCT; test: SPR; conditions: K+ 100 mM; 20 mM MES, pH 5.5, 25 °C
[2] = molecular target: T1, Aβ1-42 (Homo sapiens, UniProt P05067); test: Thioflavine T fluorescence spectroscopy assay (time course to 96 h); assay type: biochemical; conditions: 20 μM compound, Aβ1-42 incubated for 96 h
T1 construct: Aβ1-42 was purchased from Gill Biochemicals Ltd (Shanghai, China); purchased Gill Biochemicals Ltd (Shanghai, China)
T1 sequence (P05067 672-713 limits assumed): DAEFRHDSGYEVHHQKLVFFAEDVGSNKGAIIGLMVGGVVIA
Procedure: (§1) The Aβ1-42 solutions (100 μM) were co-incubated with B14 (20 μM) or Curcumin (20 μM) at 37 °C protected from light for 96 h. 30 μL of Aβ1-42 solution was taken at different time points (0 h, 10 h, 24 h, 48 h, 72 h, 96 h), mixed fully with 400 μL of ThT solution (15 μM), and incubated in the dark for 30 min. The fluorescence signal was recorded by using a Cary Eclipse fluorescence spectrophotometer (Varian, USA) with the following setting: excitation wavelength at 440 nm, emission wavelength at 480 nm, and slit width of 20 nm.
as §1, with “μM) and” for “μM) or”, “Aβ1-42 solutions were” for “Aβ1-42 solution was”, “by” for “by using”, “with” for “with the following setting:”

[3] = molecular target: T1, Aβ1-42; test: Congo red binding assay; assay type: biochemical; conditions: 20 μM compound, 72 h
Procedure: (§2) A total of 30 μM Congo red (Aladdin, Shanghai, China) solution (20 mM potassium phosphate, 50 mM NaCl, pH 7.4) was prepared and filtered with a 0.45 μm filter. The Aβ1-42 solutions (30 μM) were co-incubated with B14 (20 μM), A22 (20 μM), or Curcumin (20 μM) at 37 °C protected from light for 72h. The Aβ1-42 solution was mixed with equal volume of Congo red solution, followed by incubation for 30 min. A spectral region from 400 nm to 650 nm was measured by using a UV–vis spectrophotometer (AoE, China).
as §2, with “red” for “red (Aladdin, Shanghai, China)”, “μM) and” for “μM), A22 (20 μM), or”, “solution and incubated” for “solution, followed by incubation”, “analyzed” for “measured”, “UV-vis” for “UV–vis”

[4] = molecular target: T1, Aβ1-42; test: Dot blot of Aβ1-42 fibril aggregation; assay type: biochemical; conditions: 20 μM compound, 24 h
Procedure: After incubation at 37 °C for 24 h, 10 μL aliquots of 20 μM Aβ1-42 reaction mixtures were spotted onto nitrocellulose membranes. Membranes were blocked for 2 h with 5 % non-fat milk in TBS. After washing, membranes were incubated with the anti-Aβ fibril antibody (1:1,000, CST, USA) dissolved in TBS containing 3 % bovine serum albumin (BSA, Beyotime, Jiangsu, China) and 0.01 % Tween-20 (Solarbio, Beijing, China), and developed using an alkaline-phosphatase anti-rabbit secondary antibody (1:5,000, Proteintech, China). The bands were then detected using an enhanced chemiluminescence (ECL) kit (Millipore, USA).
After incubation at 37 °C for 24h, 10 μL aliquots of 20 μM Aβ1-42 reactions were spotted onto nitrocellulose membranes. The membranes were blocked for 2 h with 5% non-fat milk in TBS. After washing, the membranes were incubated with the anti-Aβ fibril antibody (1:1000 dilution) dissolved in TBS containing 3% BSA and 0.01% Tween-20, and then developed using an alkaline-phosphatase antirabbit secondary antibody (1:5000 dilution). Invitrogen's Western Breeze Chemiluminescent kit was used to visualize the protein dots, and these dots were imaged using a FUJIFILM Luminescent Image Analyzer LAS-1000CH.

[5] = molecular target: BCL-2 gene promoter i-motif; test: SPR binding to BCL-2 promoter i-motif; conditions: MES buffer pH 5.5, 25 °C
Procedure: SPR measurement was performed on a ProteOn XPR36 protein interaction array system (Bio-Rad Laboratories, Hercules, California, USA) using a Neutravidin-coated GLH sensor chip. BCL-2 i-motif binding analysis was performed following a published method without significant modification. For immobilization, 5′-biotin-labeled DNA oligomers at 800 nM annealed in 1 × MES buffer at pH 5.5 by heating at 95 °C for 5 min, were attached to a reptavidin-coated sensor chip. Compounds were prepared through serial dilution with flowing buffer (20 mM MES, 100 mM KCl, pH 5.5 for i-motif) in at least 6 concentrations, which were simultaneously injected at a flow rate of […] for a 120 s of association phase, followed by 250 s of dissociation phase at 25 °C. Langmuir model was used for fitting kinetic data, which was analyzed with ProteOn manager software. KD values were determined through equation KD = kd/ka. Compound A22 was used as a positive control, and other compounds were selected as candidates only if their KD values for binding to BCL-2 i-motif were similar to that of A22.

KD [1]	Kd [5]	SMILES	further results
> 50 µM	> 50 µM	CN(C)CCCNc1ccc2c(c1)c(=O)c1cc(NCCCN(C)C)ccc1n2-c1ccc2occc2c1 [Compound B2]	
	> 50 µM	CCN(CC)CCCNc1ccc2c(c1)c(=O)c1cc(NCCCN(CC)CC)ccc1n2-c1ccc2occc2c1 [Compound B1]	
> 50 µM	> 50 µM	O=C(CCCN1CCOCC1)Nc1ccc2c(c1)c(=O)c1cc(NC(=O)CCCN3CCOCC3)ccc1n2-c1ccc2occc2c1 [Compound B11]	
	> 50 µM	CN1CCN(CCCNc2ccc3c(c2)C(=O)c2cc(NCCCN4CCN(C)CC4)ccc2C3c2ccc3occc3c2)CC1 [Compound B4]	
> 50 µM	> 50 µM	CCN(CC)CCC(=O)Nc1ccc2c(c1)c(=O)c1cc(NC(=O)CCN(CC)CC)ccc1n2-c1ccc2occc2c1 [Compound B13]	
> 50 µM	> 50 µM	O=c1c2cc(NCCc3ccccn3)ccc2n(-c2ccc3occc3c2)c2ccc(NCCc3ccccn3)cc12 [Compound B10]	
> 50 µM	> 50 µM	O=c1c2cc(NCCCN3CCCC3)ccc2n(-c2ccc3occc3c2)c2ccc(NCCCN3CCCC3)cc12 [Compound B7]	
> 50 µM	> 50 µM	CN(C)CCNc1ccc2c(c1)c(=O)c1cc(NCCN(C)C)ccc1n2-c1ccc2occc2c1 [Compound B8]	
> 50 µM	> 50 µM	O=c1c2cc(NCCN3CCOCC3)ccc2n(-c2ccc3occc3c2)c2ccc(NCCN3CCOCC3)cc12 [Compound B6]	
> 50 µM	> 50 µM	CCN(CC)CCNc1ccc2c(c1)c(=O)c1cc(NCCN(CC)CC)ccc1n2-c1ccc2occc2c1 [Compound B9]	
> 50 µM	> 50 µM	O=c1c2cc(NCCN3CCNCC3)ccc2n(-c2ccc3occc3c2)c2ccc(NCCN3CCNCC3)cc12 [Compound B3]	
> 50 µM	> 50 µM	O=c1c2cc(NCCCN3CCOCC3)ccc2n(-c2ccc3occc3c2)c2ccc(NCCCN3CCOCC3)cc12 [Compound B5]	
> 50 µM	> 50 µM	O=C(CCN1CCCC1)Nc1ccc2c(c1)c(=O)c1cc(NC(=O)CCN3CCCC3)ccc1n2-c1ccc2occc2c1 [Compound B12]	

Further lines, the compound ahead of its results:

SMILES	KD [1]	Kd [5]	further results
CN1CCN(CCC(=O)Nc2ccc3c(c2)c(=O)c2ccccc2n3-c2ccc3occc3c2)CC1	> 50 µM		
COc1cc(/C=C/C(=O)CC(=O)/C=C/c2ccc(O)c(OC)c2)ccc1O [Curcumin, reference compound]			decrease of ThT fluorescence intensity [2]: 20.83 ± 1.68%; absorbance of Congo red in the Aβ1-42 sample [3]: some inhibitory effect, but much lower than B14; formation of Aβ fibers (dot blot) [4]: relatively less significant effect compared with B14
O=c1c2ccccc2n(-c2ccc3occc3c2)c2ccc(NCCCN3CCCC3)cc12 [Compound A7]	> 50 µM	> 50 µM	
O=C(CCN1CCOCC1)Nc1ccc2c(c1)c(=O)c1ccccc1n2-c1ccc2occc2c1 [Compound A16]		> 50 µM	
O=c1c2ccccc2n(-c2ccc3occc3c2)c2ccc(NCCc3ccccn3)cc12 [Compound A10]	> 50 µM	> 50 µM	
CN(C)CCC(=O)Nc1ccc2c(c1)c(=O)c1ccccc1n2-c1ccc2occc2c1	> 50 µM		
O=c1c2ccccc2n(-c2ccc3occc3c2)c2ccc(NCCN3CCOCC3)cc12 [Compound A6]	> 50 µM	> 50 µM	
CC1CCN(CCC(=O)Nc2ccc3c(c2)c(=O)c2ccccc2n3-c2ccc3occc3c2)CC1	> 50 µM		
CN1CCN(CCCNc2ccc3c(c2)c(=O)c2cc(NCCCN4CCN(C)CC4)ccc2n3-c2ccc3occc3c2)CC1	> 50 µM		
CN(C)CCNc1ccc2c(c1)c(=O)c1ccccc1n2-c1ccc2occc2c1 [Compound A8]	> 50 µM	> 50 µM	
CCN(CC)CCNc1ccc2c(c1)c(=O)c1ccccc1n2-c1ccc2occc2c1 [Compound A9]	34.1 µM	34.1 µM	
CC1CCN(C=CC(=O)Nc2ccc3c(c2)c(=O)c2ccccc2n3-c2ccc3occc3c2)CC1 [Compound A12]		> 50 µM	
CN(C)C=CC(=O)Nc1ccc2c(c1)c(=O)c1ccccc1n2-c1ccc2occc2c1 [Compound A14]		> 50 µM	
CCN(CC)CCCNc1ccc2c(c1)c(=O)c1ccccc1n2-c1ccc2occc2c1 [Compound A1]		> 50 µM	
CN1CCN(C=CC(=O)Nc2ccc3c(c2)c(=O)c2ccccc2n3-c2ccc3occc3c2)CC1 [Compound A15]		> 50 µM	
CCN(C=CC(=O)Nc1ccc2c(c1)c(=O)c1ccccc1n2-c1ccc2occc2c1)CC [Compound A13]		> 50 µM	
CN(C)CCCNc1ccc2c(c1)c(=O)c1ccccc1n2-c1ccc2occc2c1 [Compound A2]	> 50 µM	> 50 µM	
O=c1c2ccccc2n(-c2ccc3occc3c2)c2ccc(NCCN3CCNCC3)cc12 [Compound A3]	> 50 µM	> 50 µM	
CN1CCN(CCCNc2ccc3c(c2)c(=O)c2ccccc2n3-c2ccc3occc3c2)CC1 [Compound A4]	> 50 µM	> 50 µM	
CCN(CC)CCC(=O)Nc1ccc2c(c1)c(=O)c1ccccc1n2-c1ccc2occc2c1	> 50 µM		
O=C(CCCN1CCOCC1)Nc1ccc2c(c1)c(=O)c1ccccc1n2-c1ccc2occc2c1 [Compound A11]	> 50 µM	> 50 µM	
O=c1c2ccccc2n(-c2ccc3occc3c2)c2ccc(NCCCN3CCOCC3)cc12 [Compound A5]	> 50 µM	> 50 µM	
